Test results published in ChEMBL document CHEMBL1143538 (Bioorg Med Chem Lett, 2005).

How the values were obtained:
Type in all cases: cell-based
[1] = target: Delta-type opioid receptor (Homo sapiens, UniProt P41143); assay: Binding affinity against Opioid receptor delta 1 expressed in CHO cells using [3H]Naltrindole as radioligand
Mu-type opioid receptor = Mu-type opioid receptor (Homo sapiens, UniProt P35372); assay: Binding affinity against Opioid receptor mu 1 expressed in CHO cells using [3H]DAMGO as radioligand
[2] = target: Kappa-type opioid receptor (Homo sapiens, UniProt P41145); assay: Binding affinity against Opioid receptor kappa 1 expressed in CHO cells using [3H]U-69593 as radioligand
Kappa-type opioid receptor, sequence (P41145 whole entry): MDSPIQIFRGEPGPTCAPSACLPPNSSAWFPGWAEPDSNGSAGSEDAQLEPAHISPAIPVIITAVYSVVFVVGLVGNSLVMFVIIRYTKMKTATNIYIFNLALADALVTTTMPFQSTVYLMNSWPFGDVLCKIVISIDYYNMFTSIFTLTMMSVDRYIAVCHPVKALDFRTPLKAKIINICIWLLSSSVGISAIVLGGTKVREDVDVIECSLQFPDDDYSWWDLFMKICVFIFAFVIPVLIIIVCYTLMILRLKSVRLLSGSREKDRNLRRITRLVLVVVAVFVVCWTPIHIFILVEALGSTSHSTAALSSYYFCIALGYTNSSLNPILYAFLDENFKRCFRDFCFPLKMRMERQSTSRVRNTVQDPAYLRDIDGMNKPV

Delta-type opioid receptor, sequence (P41143 whole entry): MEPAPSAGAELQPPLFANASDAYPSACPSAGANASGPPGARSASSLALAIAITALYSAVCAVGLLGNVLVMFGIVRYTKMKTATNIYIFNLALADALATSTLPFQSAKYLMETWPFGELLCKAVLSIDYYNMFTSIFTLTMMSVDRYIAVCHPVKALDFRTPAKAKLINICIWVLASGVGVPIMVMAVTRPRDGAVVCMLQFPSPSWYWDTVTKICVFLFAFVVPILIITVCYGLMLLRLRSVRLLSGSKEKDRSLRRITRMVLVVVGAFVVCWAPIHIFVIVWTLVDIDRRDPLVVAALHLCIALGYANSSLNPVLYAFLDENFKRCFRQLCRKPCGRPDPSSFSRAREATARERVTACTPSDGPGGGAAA
Mu-type opioid receptor, sequence (P35372 whole entry): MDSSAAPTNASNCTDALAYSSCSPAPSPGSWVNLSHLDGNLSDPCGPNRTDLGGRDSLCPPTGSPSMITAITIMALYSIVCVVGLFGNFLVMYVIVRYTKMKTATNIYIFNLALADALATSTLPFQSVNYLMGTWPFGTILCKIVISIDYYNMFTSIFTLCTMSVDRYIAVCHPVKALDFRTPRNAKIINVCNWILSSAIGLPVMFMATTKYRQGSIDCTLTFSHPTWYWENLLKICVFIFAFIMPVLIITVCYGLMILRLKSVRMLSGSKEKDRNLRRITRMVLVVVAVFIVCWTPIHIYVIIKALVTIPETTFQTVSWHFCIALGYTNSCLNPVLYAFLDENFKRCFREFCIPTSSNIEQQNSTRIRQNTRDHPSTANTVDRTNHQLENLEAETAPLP

| SMILES | Ki [1] [nM] | Ki (Mu-type opioid receptor) [nM] | Ki [2] [nM] |
| --- | --- | --- | --- |
| COc1c(C(N)=O)ccc2c1[C@]13CCN(CC4CC4)[C@H](C2)[C@]1(O)CCC(=O)C3 | 480 | 11 | 23 |
| O=C1CC[C@@]2(O)[C@H]3Cc4ccc(O)c(O)c4[C@@]2(CCN3CC2CC2)C1 | 130 | 17 | 2.2 |
| NC(=O)c1ccc2c(c1O)[C@]13CCN(CC4CCC4)[C@H](C2)[C@]1(O)CCC(=O)C3 | 4.2 |  | 0.27 |
| NC(=O)c1ccc2c3c1O[C@H]1C(=O)CC[C@@]4(O)[C@@H](C2)N(CC2CC2)CC[C@]314 | 550 | 0.71 | 11 |
| NC(=O)c1ccc2c(c1O)[C@]13CCN(CC4CC4)[C@H](C2)[C@]1(O)CCC(=O)C3 [SAMIDORPHAN] | 2.6 | 0.052 | 0.23 |
